Test results reported in US20220409692A1, “Systems Chemico-Pharmacology Drugs and Methods of Use” (The Medical College of Wisconsin, priority 2019, published 2022).

Columns and labels:
MPO = biological target: T1, MPO (Homo sapiens, UniProt P05164); test: KYC/AA(n) peptide inhibition of MPO HOCl production (TMB assay) at varied pH; type: biochemical; conditions: regardless of pH
T1 sequence (P05164 49-745): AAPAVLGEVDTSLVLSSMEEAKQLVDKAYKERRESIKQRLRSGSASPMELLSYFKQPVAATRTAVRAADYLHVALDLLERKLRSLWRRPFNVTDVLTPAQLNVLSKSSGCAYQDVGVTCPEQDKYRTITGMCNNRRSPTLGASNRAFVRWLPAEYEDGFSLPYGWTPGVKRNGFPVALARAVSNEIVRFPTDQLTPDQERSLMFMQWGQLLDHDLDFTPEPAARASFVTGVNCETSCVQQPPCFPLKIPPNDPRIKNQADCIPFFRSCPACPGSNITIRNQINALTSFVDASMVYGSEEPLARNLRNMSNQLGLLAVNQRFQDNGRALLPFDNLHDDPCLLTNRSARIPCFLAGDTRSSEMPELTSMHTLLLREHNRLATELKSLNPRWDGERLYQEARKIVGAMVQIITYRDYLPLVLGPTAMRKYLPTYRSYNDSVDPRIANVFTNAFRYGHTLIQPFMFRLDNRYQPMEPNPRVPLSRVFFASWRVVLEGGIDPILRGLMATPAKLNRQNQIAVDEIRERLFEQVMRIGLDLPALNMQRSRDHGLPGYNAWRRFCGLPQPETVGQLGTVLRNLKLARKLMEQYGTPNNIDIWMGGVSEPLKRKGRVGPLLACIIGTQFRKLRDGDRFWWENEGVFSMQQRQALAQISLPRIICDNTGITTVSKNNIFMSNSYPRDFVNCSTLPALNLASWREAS
Source text: Small peptides of generic formula AA(n) (where AA represents different amino acids, and n can be 2-5) are both substrates and inhibitors of MPO (alternatively, inhibitors of EPO). These peptides are […] at the active site of MPO, which subsequently decreases the production of toxic oxidants that includes but not restricted to hypochlorous acid. All MPO activities (i.e., hypochlorous acid production) described herein were quantified by the 3,3′,5,5′-tetramethylbenzidine (TMB) assay. […] The free radical itself may act as an activated species, and is stable enough to react with proximal proteins, peptides, metabolites or small molecules to effect further change. The free radical is not limited to a single target, but may effect change multiple independent targets. In a non-limiting example, the free radical goes on to form a hetero- or homo dimer via an oxidized —S—S— disulfide (or di-Selenium) linkage. Finally, the more interactions between the peptide and active site of MPO that occurs the lower numerical IC50 value of the peptide inhibitor.
KYZ is […] in the presence of MPO, which subsequently decreases the production of hypochlorous acid. All MPO activities (i.e., hypochlorous acid production) were quantified by the 3,3′,5,5′-tetramethylbenzidine (TMB) assay. The tripeptide KXZ, requires amino acid #1 (AA1, K) to be a native amino acid or an artificial amino acid (aa) with a basic side-chain such as an amine functional group (e.g., Lysine (K)). Amino acid #2 (AA2, X) is a native or artificial amino acid that may contain a polar, non-polar, or aromatic amino acid.

RLMVEC = test: KYC thiylation of endothelial cell proteins in RLMVEC cultures; type: cell-based, rat
Source text: FIG. 29. Effects of Oxidative Stress on KYC Thiylation of RLMVEC Proteins. (A) Streptavidin affinity blot of KYC thiylated proteins from cell lysates prepared from RLMVEC cultures treated with B-KYC (baseline), B-KYC+MPO+H2O2 (MPO-dependent), and B-KYC+H2O2 (H2O2-dependent). (B) Immunoblot for Nrf2 in RLMVEC cultures treated as described in A. (C) Immunoblot for Keap1 in RLMVEC cultures treated as described in A. (D) Immunoblot for HMGB1 in RLMVEC cultures treated as described in A.(E) Immunoblot for β-Actin in RLMVEC cultures treated as described in A.(F) Bar chart showing relative levels of KYC thiylation, Nrf2, Keap1, and HMGB1 as a function of β-Actin (n=2, *=p<0.05, statistical analysis was preformed by ANOVA with appropriate post hoc tests).
FIG. 31. MPO Oxidation of KYC Increases KYC Thiylation of Extracellular HMGB1. […] This conclusion is based on the relative levels of KYC thiylated HMGB1 in panel A vs. KYC thiylated HMGB1 as a function of HMGB1 protein in conditioned media vs. RLMVEC cell lysates.
Rat lung microvascular endothelial cells (RLMVEC) from neonatal Sprague-Dawley rats (RN-6011) and rat endothelial growth medium (EGM, M1266SF) were from Cell Biologics (Chicago, Ill.). Amicon®Ultra-4 centrifugal concentrators with 3K cut-off (UFC800324) were from Merck Millipore Ltd (Carrigtwohill, Ireland). PierceTM Streptavidin (#88816), Protein G (#88848), Protein A Magnetic Beads (#88845), PierceTM ECL Western Blotting Substrate (#32106), and SuperSignalTM West Femto Maximum Sensitivity Substrate (#34095) were from Thermo Fisher Scientific (Waltham, MA). Rabbit antibodies for myeloperoxidase heavy chain (MPO, sc-33596) and TLR4 (sc-10741) were from Santa Cruz Biotechnology (Dallas, Texas). Rabbit antibody for Cl-Tyr (HP5002) was from Hycult Biotech (Plymouth Meeting, PA). The chicken antibody for HMGB1 (326052233) was from SHINO-TEST Corporation (Kanagawa, Japan). Rabbit antibody for RAGE (GTX23611) was from GeneTex (Irvine, CA). Mouse antibodies for PECAM-1/CD31 (ab24590), for 8-OH-dG (ab48508), and for rat endothelial cell antigen-1 (RECA-1, ab9774) were from Abcam (Cambridge, MA). Rabbit antibody for Cox1 (sc-7950) and Cox2 (sc-7951) were from Santa Cruz Biotechnology. Mouse (ab190377) and rabbit (ab77302b) antibodies for HMGB1, and streptavidin-HRP (ab7403) were from Abcam (Cambridge, Mass.). Rabbit antibody for acetylated-HMGB1 (OASG03545) was from Aviva System Biology (San Diego, Calif.). Rabbit antibodies for Nrf2 (sc-722) and TLR4 (sc-30002) were from Santa Cruz Biotechnology (Dallas, Tex.). Rabbit antibody against Keap1 (ABS97) and mouse antibody for β-actin (A2228) were from Millipore-Sigma (St. Louis, Mo.). Rabbit antibody for cysteine sulfonyl (ADI-OSA-820) was from Enzo Life Sciences (Farmingdale, N.Y.). Mouse antibody for glutathionylated proteins (D8) and all other chemicals were from Sigma-Aldrich (St. Louis, Mo.). All antibodies were certified either by the manufacturer or were used previously and certified by the authors, as was the case for the anti-HMGB1 antibody.
Effects of Oxidative Stress on KYC Thiylation on Endothelial Cell Proteins in RLMVEC Cultures: To determine the effects of oxidative stress on KYC thiylation, RLMVEC cultures were treated with B-KYC to follow KYC thiylation with streptavidin-affinity blotting as outlined in Methods. Three different levels of oxidative stress were used to determine the effects of oxidative stress on KYC thiylation of endothelial cell proteins: media alone (baseline); media containing MPO+H2O2 (MPO-dependent); and media containing H2O2 alone (H2O2-dependent) (FIG. 29A). KYC thiylation of RLMVEC proteins at baseline was low (FIG. 29A, first two lanes).

HMGB1 = biological target: T2, HMGB1 (Homo sapiens, UniProt P09429); test: Streptavidin-affinity blot of B-KYC thiylated recombinant HMGB1 and MPO in MPO reaction mixture; type: biochemical; conditions: split sample, DTT 100 mM
T2 sequence (P09429 1-215): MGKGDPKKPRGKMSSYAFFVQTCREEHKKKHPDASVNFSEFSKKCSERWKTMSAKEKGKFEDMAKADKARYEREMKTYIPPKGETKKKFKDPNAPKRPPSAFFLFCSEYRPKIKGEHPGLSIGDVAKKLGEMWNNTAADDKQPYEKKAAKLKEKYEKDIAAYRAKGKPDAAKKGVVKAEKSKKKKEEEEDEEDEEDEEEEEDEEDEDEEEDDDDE
Protocol: FIG. 30. MPO Oxidizes KYC to a KYC Thiyl Radical That Thiylates HMGB1. (A) ESR spectrum of KYC thiyl S°-DMPO generated by an MPO reaction mixture containing MPO (120 nM), H2O2 (50 μM) and KYC (30 μM). (B) Streptavidin-affinity blot of KYC thiylated HMGB1 and MPO in a split sample, one half treated neat and other half treated with DTT (100 mM) to reduce disulfide bonds.
This spectrum is similar to the spectrum of DMPO-S◯-YC generated when the dipeptide YC was added to an MPO reaction mixture containing DMPO [34].
Previously we reported that KYC reduced MPO-dependent oxidative damage because KYC competes with native substrates, such as chloride and nitrite, that are oxidized to “toxic” oxidants. In 2013, we argued that KYC reduced MPO-dependent oxidative damage because the resultant KYC thiyl radical would autoscavenge to prevent radical propagation. […] To determine the radical mechanisms mediating MPO oxidation of KYC and KYC thiylation of HMGB1, we performed two experiments. In the first experiment, we trapped KYC thiyl radicals generated by MPO with DMPO (FIG. 30A), which confirms our conclusions in 2013 [27]. In the second experiment, we added recombinant HMGB1 to PBS containing MPO+H2O2+B-KYC and determined KYC thiylation by streptavidin affinity blotting. […]

inhibitory properties (IC50) KVC versus KVVC (MPO) | Substance | KYC thiylation of RLMVEC proteins (RLMVEC; H2O2-dependent (media containing H2O2 alone)) | KYC thiylation of RLMVEC proteins (RLMVEC; MPO-dependent (media containing MPO+H2O2)) | KYC thiylation of RLMVEC proteins (RLMVEC; baseline (media alone)) | fluorescent band density of B-KYC thiylated HMGB1 and MPO (HMGB1)
improvement of inhibitory properties | Ac-KVVC-amide [N-acetylated, C-amidated AA(n) peptide, KVC with an added amino acid] |  |  |  | 
 | biotin-aminohexanoyl-N-[Ahx]-KYC-amide [B-KYC] | more than observed at baseline, but not as high as MPO-dependent B-KYC thiylation | markedly increased | low | decreased in the sample treated with dithiothreitol
